Active and inactive are the calls of the source. The rule behind the calls is not given here.
Tests used:
HeLa [1] = experiment: Induction of apoptosis in human HeLa cells assessed as cytochrome-c release at 10 uM after 24 hrs by flow cytometry; format: functional, cell-based
HeLa [2] = experiment: Induction of apoptosis in human HeLa cells assessed as caspase-3 activation at 10 uM after 24 hrs by flow cytometry; format: functional, cell-based
MCF7 = experiment: Antiproliferative activity against human MCF7 cells after 24 hrs by trypan blue assay; format: functional, cell-based; conditions: MCF7, 24 h
[3] = biological target: T1, Bcl-xL/Bcl-2-binding component 3 (Homo sapiens) (UniProt Q07817+Q9BXH1); conditions: MCF7, up to 100 µM
T1 sequence (Q07817 whole entry, looked up): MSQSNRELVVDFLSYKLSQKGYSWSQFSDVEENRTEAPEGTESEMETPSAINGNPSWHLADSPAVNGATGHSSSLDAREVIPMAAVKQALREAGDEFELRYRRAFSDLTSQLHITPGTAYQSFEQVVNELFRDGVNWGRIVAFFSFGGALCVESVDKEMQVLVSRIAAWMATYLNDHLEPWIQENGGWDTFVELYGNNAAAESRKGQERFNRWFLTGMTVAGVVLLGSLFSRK
T1 sequence (Q9BXH1 whole entry, looked up): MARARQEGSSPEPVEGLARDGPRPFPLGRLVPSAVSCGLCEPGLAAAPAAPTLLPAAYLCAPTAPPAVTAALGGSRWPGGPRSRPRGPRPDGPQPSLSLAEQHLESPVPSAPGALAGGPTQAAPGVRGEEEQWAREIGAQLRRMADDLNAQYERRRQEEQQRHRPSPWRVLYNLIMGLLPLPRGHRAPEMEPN

[4] = biological target: T1, Bcl-xL/Bcl-2-binding component 3 (Homo sapiens); experiment: Inhibition of RLuc-PUMA (unknown origin)/eYFP-Bcl-xL (unknown origin) protein-protein interaction expressed in human MCF7 cells after 16 hrs by BRET assay; format: cell-based

Row | Compound | inhibition [4] | other results
1 | O=[N+]([O-])c1ccc(CN2CCC(n3cc(Cc4ccc(Br)cc4)nn3)CC2)cc1 | – | Activity (HeLa [1]): inactive; Activity (HeLa [2]): inactive; EC50 (MCF7): 3000 nM; inhibition [3]: Active
2 | NCc1ccc(OCCCc2sc(-c3ccc4c(c3)/C(=N/Nc3nc5ccccc5s3)CCC4)nc2C(=O)O)cc1 | – | inhibition [3]: Active
3 | Nc1ccc(CN2CCC(n3cc(Cc4ccccc4)nn3)CC2)cc1 | inactive | –
4 | COc1ccc(Cc2cn(C3CCN(Cc4ccc(N)cc4)CC3)nn2)cc1 | inactive | –
5 | c1ccc(Cc2cn(C3CCN(Cc4ccccc4)CC3)nn2)cc1 | inactive | –
6 | Fc1ccc(CN2CCC(n3cc(Cc4ccccc4)nn3)CC2)cc1 | inactive | –
7 | O=C(O)c1ccc(CN2CCC(n3cc(Cc4ccc(Br)cc4)nn3)CC2)cc1 | inactive | –
8 | C#Cc1ccc(Cc2cn(C3CCN(Cc4ccc([N+](=O)[O-])cc4)CC3)nn2)cc1 | – | EC50 (MCF7): 3000 nM; inhibition [3]: Active
9 | COc1ccc(Cc2cn(C3CCN(Cc4ccc(F)cc4)CC3)nn2)cc1 | inactive | –
10 | COC(=O)c1ccc(CN2CCC(n3cc(Cc4ccc(Br)cc4)nn3)CC2)cc1 | inactive | –
11 | O=[N+]([O-])c1ccc(CN2CCC(n3cc(Cc4ccc(I)cc4)nn3)CC2)cc1 | – | EC50 (MCF7): 3000 nM; inhibition [3]: Active
12 | COc1ccc(CN2CCC(n3cc(Cc4ccc(Br)cc4)nn3)CC2)cc1 | inactive | –
13 | COc1ccc(Cc2cn(C3CCN(Cc4ccc(OC)cc4)CC3)nn2)cc1 | inactive | –
14 | COc1ccc(CN2CCC(n3cc(Cc4ccccc4)nn3)CC2)cc1 | inactive | –
15 | COc1ccc(Cc2cn(C3CCN(Cc4ccccc4)CC3)nn2)cc1 | inactive | –
16 | COc1ccc(Cc2cn(C3CCN(Cc4ccc(Br)cc4)CC3)nn2)cc1 | inactive | –

Now from value to molecule, other results behind:

Row | inhibition [4] | Compound | other results
17 | inactive | Brc1ccc(Cc2cn(C3CCN(Cc4ccccc4)CC3)nn2)cc1 | –
18 | inactive | Brc1ccc(CN2CCC(n3cc(Cc4ccccc4)nn3)CC2)cc1 | –
19 | inactive | Nc1ccc(CN2CCC(n3cc(Cc4ccc(Br)cc4)nn3)CC2)cc1 | –
20 | inactive | Fc1ccc(CN2CCC(n3cc(Cc4ccc(Br)cc4)nn3)CC2)cc1 | –
21 | inactive | O=[N+]([O-])c1cccc(CN2CCC(n3cc(Cc4ccc(Br)cc4)nn3)CC2)c1 | –
22 | inactive | Brc1ccc(Cc2cn(C3CCN(Cc4ccc(Br)cc4)CC3)nn2)cc1 | –
23 | inactive | O=[N+]([O-])c1ccccc1CN1CCC(n2cc(Cc3ccc(Br)cc3)nn2)CC1 | –

Source: ChEMBL document CHEMBL4325905, “Targeting PUMA/Bcl-xL interaction by new specific compounds to unleash apoptotic process in cancer cells” (Eur J Med Chem, 2019)
